From patent publication US4593104A, “2-halo-N-(azole-1-yl-methyl)-substituted acetanilides” (BASF Aktiengesellschaft, priority 1976, dated 1986)

Columns and labels:
[1] = tested on: Amar. retro.; experiment: preemergence treatment in the greenhouse, % damage; type: in vivo; conditions: one value printed for two rates (0.125 0.25 kg/ha)
Outline: (§1)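 Damage rated on a 0 (none) to 100 (no emergence or total destruction) scale over 4–6 weeks in the greenhouse (15–30 °C or 25–40 °C by species), at rates in kg/ha a.i. Pre-emergence sprays went onto sandy-loam surface right after sowing, pots then watered and hooded; post-emergence sprays hit unhooded plants at 3–10 cm.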

[2] = tested on: Bromus spp.; experiment: preemergence treatment in the greenhouse, % damage; type: in vivo
Outline: as §1

[3] = tested on: Chrys. seget.; experiment: preemergence treatment in the greenhouse, % damage; type: in vivo; conditions: 0.25 kg/ha
Outline: as §1

[4] = tested on: Cyp. diff.; experiment: preemergence treatment in the greenhouse, % damage; type: in vivo
Outline: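 Greenhouse herbicide test at rates in kg/ha a.i. Pre-em soil spray right after sowing, then irrigation and hooding; post-em on 3–10 cm plants. Rated 0–100 over 4–6 weeks.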

[5] = tested on: Euph. gen.; experiment: preemergence treatment in the greenhouse, % damage; type: in vivo; conditions: 0.25 kg/ha
Outline: as §1

[6] = tested on: Poa annua; experiment: preemergence treatment in the greenhouse, % damage; type: in vivo
Outline: as §1

[7] = tested on: Solanum nigrum; experiment: preemergence treatment in the greenhouse, % damage; type: in vivo
Outline: as §1

[8] = tested on: Sorgh. halep.; experiment: preemergence treatment in the greenhouse, % damage; type: in vivo
Outline: as §1

[9] = tested on: Alopec. myosur.; experiment: preemergence application in the open, % damage; type: in vivo; conditions: 2.0 kg/ha
Experimental: (§2) The experiments were carried out on small plots. The soil was a sandy loam having a pH of from 5 to 6 and containing from 1 to 1.5% humus. The treatment was preemergence, the active ingredients being applied immediately or at the latest 3 days after sowing. The crop plants were sown in rows. The weed flora was made up of the most widely varying species and was natural; the weed flora depended on the time of the year and in part on the crop (e.g., spring-germinating, summer-germinating). The substances were emulsified or suspended in water as the vehicle, and applied by means of a motor-driven plot spray mounted on a hitch. When no rain fell, the plots were watered to ensure germination and growth of the crop plants and weeds. All the experiments were run for several weeks. Over this period, assessments were made at certain intervals on the 0 to 100 scale.

[10] = tested on: Amar. retro.; experiment: preemergence application in the open, % damage; type: in vivo
Experimental: as §2

[11] = tested on: Anth./Matric.; experiment: preemergence application in the open, % damage; type: in vivo; conditions: 2.0 kg/ha
Experimental: as §2

[12] = tested on: Brassica napus; experiment: preemergence application in the open, % damage; type: in vivo; conditions: 2.0 kg/ha
Experimental: as §2

[13] = tested on: Chenop. spp.; experiment: preemergence application in the open, % damage; type: in vivo
Experimental: as §2

[14] = tested on: Echin. c.g.; experiment: preemergence application in the open, % damage; type: in vivo
Experimental: as §2

[15] = tested on: Galins. spp.; experiment: preemergence application in the open, % damage; type: in vivo
Experimental: as §2

[16] = tested on: Lamium spp.; experiment: preemergence application in the open, % damage; type: in vivo; conditions: 2.0 kg/ha
Experimental: as §2

[17] = tested on: Stellaria media; experiment: preemergence application in the open, % damage; type: in vivo; conditions: 2.0 kg/ha
Experimental: as §2

[18] = tested on: Glyc. max; experiment: preemergence application in the open, % damage; type: in vivo, Glycine max
Experimental: as §2

[19] = tested on: Alopec. myosur.; experiment: postemergence application in the greenhouse, % damage; type: in vivo
Outline: as §1

[20] = tested on: Avena fat.; experiment: as above; type: in vivo
Outline: as §1

[21] = tested on: Chrys. seget.; experiment: as above; type: in vivo
Outline: as §1

[22] = tested on: Matric. spp.; experiment: as above; type: in vivo
Outline: as §1

[23] = tested on: Setaria spp.; experiment: as above; type: in vivo
Outline: as §1

[24] = tested on: Stell. med.; experiment: as above; type: in vivo
Outline: as §1

[25] = tested on: Cyper. escul.; experiment: as above; type: in vivo, Cyperus esculentus
Outline: as §1

[26] = tested on: Alopec. myosur.; experiment: preemergence treatment in the greenhouse, % damage; type: in vivo
Outline: as §1

[27] = tested on: Brassica napus; experiment: preemergence treatment in the greenhouse, % damage; type: in vivo
Outline: as §1

[28] = tested on: Echin. c.g.; experiment: preemergence treatment in the greenhouse, % damage; type: in vivo
Outline: as §1

[29] = tested on: Matric. spp.; experiment: preemergence treatment in the greenhouse, % damage; type: in vivo
Outline: as §1

[30] = tested on: Setaria spp.; experiment: preemergence treatment in the greenhouse, % damage; type: in vivo
Outline: as §1

[31] = tested on: Arach. hypog.; experiment: preemergence treatment in the greenhouse, % damage; type: in vivo, Arachis hypogaea
Description: (§3) The vessels employed were plastic flowerpots having a volume of 300 cm^3; the substrate was a sandy loam containing about 1.5% humus. The seeds of the test plants (see Table 1) were sown shallow, and separated according to species. In the case of Cyperus esculentus, pregerminated tubers were planted. In the preemergence treatment, the active ingredients were then immediately applied to the surface of the soil. They were suspended or emulsified in water as the vehicle, and sprayed through atomizing nozzles. After the agents had been applied, the vessels were lightly sprinkler-irrigated to set germination and growth going, and to activate the chemical agents. The vessels were then covered with transparent plastic hoods until the plants had taken root. This cover ensured uniform germination of the test plants (to the extent that this was not impaired by the chemicals), and prevented readily volatile substances from evaporating.
(§4) For postemergence treatment, the plants were first grown to a height of from 3 to 10 cm, depending on their habit, before treated. Hoods were not placed on the pots. The experiments were set up in the greenhouse, hotter areas (25° to 40° C.) being preferred for heat-loving species, and 15° to 30° C. for plants from moderate climates. The experiments were carried out for from 4 to 6 weeks. During this period the plants were tended and their reaction to the various treatments was assessed. The following tables contain the substances investigated, the application rates in kg/ha of active ingredient, and the test plant species. Assessments were made on a 0 to 100 scale, 0 denoting no damage or normal emergence, and 100 denoting no emergence or complete destruction of at least the visible plant parts.

[32] = tested on: Carth. tinct.; experiment: tolerance by various oil crops in the greenhouse (Table 8), % damage; type: in vivo, Carthamus tincotius
Description: as §3
For postemergence treatment, the plants were first grown to a height of from 3 to 10 cm, depending on their habit, before treated. Hoods were not placed on the pots. The experiments were set up in the greenhouse, hotter areas (25° to 40° C.) being preferred for heat-loving species, and 15° to 30° C. for plants from moderate climates. […] During this period the plants were tended and their reaction to the various treatments was assessed. […]

[33] = tested on: Brassica napus; experiment: as above; type: in vivo
Description: as §3, §4

[34] = tested on: Glyc. max; experiment: as above; type: in vivo, Glycine max; conditions: varieties: Dare, Lee 68, SRF 450
Description: as §3, §4

[35] = tested on: Arach. hypog.; experiment: as above; type: in vivo, Arachis hypogaea
Description: as §3, §4

[36] = tested on: Amar. retro.; experiment: herbicidal action in the greenhouse (Table 8), % damage; type: in vivo
Description: as §3, §4

[37] = tested on: Seta. spp.; experiment: as above; type: in vivo
Description: as §3, §4

[38] = tested on: Solan. nigrum.; experiment: as above; type: in vivo
Description: as §3, §4

[39] = tested on: Zea mays; experiment: preemergence treatment in the greenhouse, % damage; type: in vivo
Outline: as §1

Compound: Cc1cccc(C)c1N(Cn1cccn1)C(=O)CCl [Compound 5]
- % damage [1]: 100%
- % damage ([2]; 0.125 kg/ha): 90%
- % damage ([2]; 0.25 kg/ha): 95%
- % damage [3]: 100%
- % damage ([4]; 0.125 kg/ha): 100%
- % damage ([4]; 0.25 kg/ha): 100%
- % damage [5]: 100%
- % damage ([6]; 0.125 kg/ha): 100%
- % damage ([6]; 0.25 kg/ha): 100%
- % damage ([7]; 0.25 kg/ha): 100%
- % damage ([8]; 0.125 kg/ha): 95%
- % damage ([8]; 0.25 kg/ha): 95%
- % damage [9]: 95%
- % damage ([10]; 0,5 kg/ha): 100%
- % damage ([10]; 1,0 kg/ha): 100%
- % damage [11]: 100%
- % damage [12]: 7.5%
- % damage ([13]; 0,5 kg/ha): 69%
- % damage ([13]; 1,0 kg/ha): 85%
- % damage ([14]; 0,5 kg/ha): 100%
- % damage ([14]; 1,0 kg/ha): 100%
- % damage ([15]; 0,5 kg/ha): 91%
- % damage ([15]; 1,0 kg/ha): 100%
- % damage [16]: 100%
- % damage [17]: 100%
- % damage ([18]; 0,5 kg/ha): 0%
- % damage ([18]; 1,0 kg/ha): 4%
- % damage ([19]; 1.0 kg/ha): 80%
- % damage ([19]; 2.0 kg/ha): 90%
- % damage ([20]; 1.0 kg/ha): 90%
- % damage ([20]; 2.0 kg/ha): 92%
- % damage ([21]; 1.0 kg/ha): 98%
- % damage ([21]; 2.0 kg/ha): 98%
- % damage ([22]; 1.0 kg/ha): 95%
- % damage ([22]; 2.0 kg/ha): 95%
- % damage ([23]; 1.0 kg/ha): 82%
- % damage ([23]; 2.0 kg/ha): 85%
- % damage ([24]; 1.0 kg/ha): 95%
- % damage ([24]; 2.0 kg/ha): 98%
- % damage ([25]; 1.0 kg/ha): 70%
- % damage ([25]; 2.0 kg/ha): 72%

Compound: Cc1ncn(CN(C(=O)CCl)c2c(C)cccc2C)n1
- % damage ([26]; 1.0 kg/ha): 97%
- % damage ([27]; 1.0 kg/ha): 5%
- % damage ([2]; 1.0 kg/ha): 98%
- % damage ([4]; 1.0 kg/ha): 100%
- % damage ([28]; 1.0 kg/ha): 100%
- % damage ([29]; 1.0 kg/ha): 92%
- % damage ([30]; 1.0 kg/ha): 100%
- % damage ([7]; 1.0 kg/ha): 100%
- % damage ([31]; 1.0 kg/ha): 0%

Compound: Cc1cccc(C)c1N(Cn1cncn1)C(=O)CCl [Compound 127]
- % damage ([32]; 0,5 kg/ha): 0%
- % damage ([32]; 1,0 kg/ha): 0%
- % damage ([33]; 0,5 kg/ha): 0%
- % damage ([33]; 1,0 kg/ha): 0%
- % damage ([33]; 2,0 kg/ha): 0%
- % damage ([34]; 0,5 kg/ha): 0%
- % damage ([34]; 1,0 kg/ha): 0%
- % damage ([34]; 2,0 kg/ha): 0%
- % damage ([35]; 0,5 kg/ha): 0%
- % damage ([35]; 1,0 kg/ha): 0%
- % damage ([35]; 2,0 kg/ha): 10%
- % damage ([36]; 0,5 kg/ha): 82%
- % damage ([36]; 1,0 kg/ha): 95%
- % damage ([36]; 2,0 kg/ha): 100%
- % damage ([37]; 0,5 kg/ha): 95%
- % damage ([37]; 1,0 kg/ha): 100%
- % damage ([37]; 2,0 kg/ha): 100%
- % damage ([38]; 0,5 kg/ha): 70%
- % damage ([38]; 1,0 kg/ha): 90%
- % damage ([38]; 2,0 kg/ha): 100%

Compound: COc1cc(C)n(CN(C(=O)CCl)c2c(C)cccc2C)n1
- % damage ([26]; 0.5 kg/ha): 95%
- % damage ([27]; 0.5 kg/ha): 5%
- % damage ([2]; 0.5 kg/ha): 95%
- % damage ([4]; 0.5 kg/ha): 100%
- % damage ([28]; 0.5 kg/ha): 90%
- % damage ([29]; 0.5 kg/ha): 95%
- % damage ([30]; 0.5 kg/ha): 98%
- % damage ([7]; 0.5 kg/ha): 85%
- % damage ([39]; 0.5 kg/ha): 20%
- % damage ([31]; 0.5 kg/ha): 0%

Compound: Cc1cccc(C)c1N(Cn1ncnn1)C(=O)CCl
- % damage ([26]; 2.0 kg/ha): 98%
- % damage ([2]; 2.0 kg/ha): 98%
- % damage ([28]; 2.0 kg/ha): 100%
- % damage ([29]; 2.0 kg/ha): 100%
- % damage ([30]; 2.0 kg/ha): 95%
- % damage ([39]; 2.0 kg/ha): 15%
- % damage ([31]; 2.0 kg/ha): 15%
